Measured values reported in article PMC4893628, “Chalcone-based Selective Inhibitors of a C4 Plant Key Enzyme as Novel Potential Herbicides” (Scientific Reports, 2016).
Where two headings read alike, the source gives them in different places.

Tests used:
[1] = test system: Pseudomonas putida KT2440; assay: Bacterial growth in microscale cultivation, P. putida; type: cell-based; conditions: for activity at 4 µM / activity at 40 µM / activity at 400 µM: Pseudomonas putida; for activity at 4 µM / activity at 40 µM / activity at 400 µM / Lag Phase: relative to control
How it was run: (§1)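 In a BioLector microscale system shaken at 1200 rpm, growth was tracked by backscatter at 620 nm, and final signal, growth rate (h⁻¹) and lag-phase length were scored against DMSO-only controls. Starting OD600 was 0.5, or 0.25 for B. subtilis. Inhibitors came from DMSO stocks, with trans-chalcone capped at 400 μM and 2'-hydroxychalcone at 100 μM.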

[2] = test system: Bacillus subtilis 168; assay: Bacterial growth in microscale cultivation, B. subtilis; type: cell-based; conditions: for activity at 4 µM / activity at 40 µM / activity at 400 µM / Lag Phase: relative to control; for Influence on bacterial growth: highest concentration tested (10× IC50) if not stated otherwise
How it was run: as §1

[3] = test system: Escherichia coli K-12 MG1655; assay: Bacterial growth in microscale cultivation, E. coli; type: cell-based; conditions: relative to control; for activity at 4 µM / activity at 40 µM / activity at 400 µM: Escherichia coli
How it was run: as §1

[4] = molecular target: T1, F. trinervia PEPC (Flaveria trinervia, UniProt P30694); assay: biochemical; type: biochemical
T1 construct: the full-length ppcA gene of PEPC from F. trinervia (EMBL-Bank X61304); made in house; host or cells: Escherichia coli BL21(DE3)
T1 sequence (P30694 1-966): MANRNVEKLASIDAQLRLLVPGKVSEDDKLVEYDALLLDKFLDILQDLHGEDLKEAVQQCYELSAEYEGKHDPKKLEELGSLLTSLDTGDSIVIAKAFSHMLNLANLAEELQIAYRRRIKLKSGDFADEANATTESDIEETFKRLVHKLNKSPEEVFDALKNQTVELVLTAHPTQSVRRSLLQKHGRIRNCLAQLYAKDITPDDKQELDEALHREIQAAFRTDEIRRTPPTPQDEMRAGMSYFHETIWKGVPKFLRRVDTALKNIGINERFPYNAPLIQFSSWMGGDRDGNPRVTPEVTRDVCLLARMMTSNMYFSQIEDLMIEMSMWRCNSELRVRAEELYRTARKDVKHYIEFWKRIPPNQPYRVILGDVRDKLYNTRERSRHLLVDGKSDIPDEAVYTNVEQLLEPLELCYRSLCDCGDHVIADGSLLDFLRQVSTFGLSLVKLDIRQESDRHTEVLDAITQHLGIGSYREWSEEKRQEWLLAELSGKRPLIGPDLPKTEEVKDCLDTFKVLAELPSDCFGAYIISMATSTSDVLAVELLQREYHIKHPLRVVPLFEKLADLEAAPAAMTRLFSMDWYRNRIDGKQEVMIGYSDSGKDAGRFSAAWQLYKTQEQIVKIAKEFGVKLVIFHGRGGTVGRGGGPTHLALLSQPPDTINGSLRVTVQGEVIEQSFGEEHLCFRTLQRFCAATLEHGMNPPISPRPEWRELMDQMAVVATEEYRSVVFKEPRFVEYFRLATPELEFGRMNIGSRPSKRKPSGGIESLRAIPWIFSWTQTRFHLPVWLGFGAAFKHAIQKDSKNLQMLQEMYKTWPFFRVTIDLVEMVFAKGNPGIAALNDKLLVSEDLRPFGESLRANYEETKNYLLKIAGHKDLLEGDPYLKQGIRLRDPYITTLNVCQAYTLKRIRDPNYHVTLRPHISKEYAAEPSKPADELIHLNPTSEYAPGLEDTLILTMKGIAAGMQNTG

SMILES: O=C(/C=C/c1ccccc1)c1ccc(O)cc1O [Compound 4, 2′,4′-Dihydroxychalcone]
- lag phase ([1]; 400 μM): slight increase in the lag phase
- activity at 4 µM ([1]; KT2440, complex medium, 4 µM, read-out: Final Backscatter): 97.8%
- activity at 4 µM ([1]; KT2440, complex medium, 4 µM, read-out: Growth rate): 101%
- activity at 40 µM ([1]; KT2440, complex medium, 40 µM, read-out: Final Backscatter): 102%
- activity at 40 µM ([1]; KT2440, complex medium, 40 µM, read-out: Growth rate): 100%
- activity at 400 µM ([1]; KT2440, complex medium, 400 µM, read-out: Final Backscatter): 100%
- activity at 400 µM ([1]; KT2440, complex medium, 400 µM, read-out: Growth rate): 101%
- activity at 4 µM ([1]; KT2440, minimal medium, 4 µM, read-out: Final Backscatter): 102%
- activity at 4 µM ([1]; KT2440, minimal medium, 4 µM, read-out: Growth rate): 94.1%
- activity at 40 µM ([1]; KT2440, minimal medium, 40 µM, read-out: Final Backscatter): 102%
- activity at 40 µM ([1]; KT2440, minimal medium, 40 µM, read-out: Growth rate): 98.3%
- activity at 400 µM ([1]; KT2440, minimal medium, 400 µM, read-out: Final Backscatter): 107%
- activity at 400 µM ([1]; KT2440, minimal medium, 400 µM, read-out: Growth rate): 93.9%
- Lag Phase ([1]; complex medium, 4 µM): 105,0%
- Lag Phase ([1]; complex medium, 40 µM): 106,6%
- Lag Phase ([1]; complex medium, 400 µM): 123,2%
- Lag Phase ([1]; minimal medium, 4 µM): 108,7%
- Lag Phase ([1]; minimal medium, 40 µM): 108,3%
- Lag Phase ([1]; minimal medium, 400 µM): 97,7%
- activity at 4 µM ([2]; Bacillus subtilis, 168, complex medium, 4 µM, read-out: Final Backscatter): 92.2%
- activity at 4 µM ([2]; Bacillus subtilis, 168, complex medium, 4 µM, read-out: Growth rate): 128%
- activity at 40 µM ([2]; Bacillus subtilis, 168, complex medium, 40 µM, read-out: Final Backscatter): 94.3%
- activity at 40 µM ([2]; Bacillus subtilis, 168, complex medium, 40 µM, read-out: Growth rate): 97.4%
- activity at 400 µM ([2]; Bacillus subtilis, 168, complex medium, 400 µM, read-out: Final Backscatter): 81.5%
- activity at 400 µM ([2]; Bacillus subtilis, 168, complex medium, 400 µM, read-out: Growth rate): 92.7%
- activity at 4 µM ([2]; Bacillus subtilis, 168, minimal medium, 4 µM, read-out: Final Backscatter): 96.6%
- activity at 4 µM ([2]; Bacillus subtilis, 168, minimal medium, 4 µM, read-out: Growth rate): 91.5%
- activity at 40 µM ([2]; Bacillus subtilis, 168, minimal medium, 40 µM, read-out: Final Backscatter): 95.7%
- activity at 40 µM ([2]; Bacillus subtilis, 168, minimal medium, 40 µM, read-out: Growth rate): 108%
- activity at 400 µM ([2]; Bacillus subtilis, 168, minimal medium, 400 µM, read-out: Final Backscatter): 77.3%
- activity at 400 µM ([2]; Bacillus subtilis, 168, minimal medium, 400 µM, read-out: Growth rate): 75.2%
- Influence on bacterial growth ([2]; Complex medium): fbs↓ lag↑
- Influence on bacterial growth ([2]; Minimal medium): fbs↓, lag↑
- Lag Phase ([2]; complex medium, 4 µM): 107,7%
- Lag Phase ([2]; complex medium, 40 µM): 107,7%
- Lag Phase ([2]; complex medium, 400 µM): 166,5%
- Lag Phase ([2]; minimal medium, 4 µM): 97,7%
- Lag Phase ([2]; minimal medium, 40 µM): 100,0%
- Lag Phase ([2]; minimal medium, 400 µM): 129,1%
- activity at 4 µM ([3]; MG1655, complex medium, 4 µM, read-out: Final Backscatter): 101%
- activity at 4 µM ([3]; MG1655, complex medium, 4 µM, read-out: Growth rate): 79.6%
- activity at 40 µM ([3]; MG1655, complex medium, 40 µM, read-out: Final Backscatter): 104%
- activity at 40 µM ([3]; MG1655, complex medium, 40 µM, read-out: Growth rate): 97.2%
- activity at 400 µM ([3]; MG1655, complex medium, 400 µM, read-out: Final Backscatter): 100%
- activity at 400 µM ([3]; MG1655, complex medium, 400 µM, read-out: Growth rate): 89.4%
- activity at 4 µM ([3]; MG1655, minimal medium, 4 µM, read-out: Final Backscatter): 103%
- activity at 4 µM ([3]; MG1655, minimal medium, 4 µM, read-out: Growth rate): 79%
- activity at 40 µM ([3]; MG1655, minimal medium, 40 µM, read-out: Final Backscatter): 99.3%
- activity at 40 µM ([3]; MG1655, minimal medium, 40 µM, read-out: Growth rate): 77.8%
- activity at 400 µM ([3]; MG1655, minimal medium, 400 µM, read-out: Final Backscatter): 102%
- activity at 400 µM ([3]; MG1655, minimal medium, 400 µM, read-out: Growth rate): 76.5%
- Lag Phase ([3]; complex medium, 4 µM): 102,2%
- Lag Phase ([3]; complex medium, 40 µM): 101,8%
- Lag Phase ([3]; complex medium, 400 µM): 101,5%
- Lag Phase ([3]; minimal medium, 4 µM): 100,7%
- Lag Phase ([3]; minimal medium, 40 µM): 99,3%
- Lag Phase ([3]; minimal medium, 400 µM): 101,1%
- Selectivity C4/C3 ([4]; C4 PEPC over C3 isoform): 2.1 fold
- IC50 ([4]; C4 PEPC, read-out: IC50 F. trinervia PEPC): 25.2 ± 1.3 µM
